Data from patent US6613747B2, “6-O-carbamoyl ketolide antibacterials” (Ortho-McNeil Pharmaceutical, Inc., priority 2000, dated 2003).
Converted amounts (≈) assume the structure as drawn.

Columns and labels:
Experiment in all cases: MIC, microdilution broth method (NCCLS)
Assay type in all cases: cell-based
E. faecalis ATCC29212 = conditions: C: E. faecalis ATCC29212, 35° C., 16-20 hours
Experimental: (§1) Minimal inhibitory concentration (MIC) has been an indicator of in vitro antibacterial activity widely used in the art. The in vitro antimicrobial activity of the compounds was determined by the microdilution broth method following the test method from the National Committee for Clinical Laboratory Standards (NCCLS). This method is described in the NCCLS Document M7-A4, Vol. 17, No. 2, “Methods for Dilution Antimicrobial Susceptibility Test for Bacteria that Grow Aerobically—Fourth Edition”, which is incorporated herein by reference.
(§2) In this method two-fold serial dilutions of drug in cation adjusted Mueller-Hinton broth are added to wells in microdilution trays. The test organisms are prepared by adjusting the turbidity of actively growing broth cultures so that the final concentration of test organism after it is added to the wells is approximately 5×10^4 CFU/well.
(§3) Following inoculation of the microdilution trays, the trays are incubated at 35° C. for 16-20 hours and then read. […] The amount of growth in the wells containing the test compound is compared with the amount of growth in the growth-control wells (no test compound) used in each tray. As set forth in Table 1, compounds of the present invention were tested against a variety of Gram positive and Gram negative pathogenic bacteria resulting in a range of activities depending on the organism tested.

E. coli OC2605 = conditions: A: E. coli OC2605, 35° C., 16-20 hours
Experimental: as §1, §2, §3

S. aureus ATCC29213 = conditions: B: S. aureus ATCC29213, 35° C., 16-20 hours
Experimental: as §1, §2, §3

H. influenzae ATCC49247 = conditions: E: H. influenzae ATCC49247, 35° C., 16-20 hours
Experimental: as §1, §2, §3

S. pneumoniae ATCC49619 = conditions: D: S. pneumoniae ATCC49619, 35° C., 16-20 hours
Experimental: as §1, §2, §3

MIC (E. faecalis ATCC29212) | MIC (E. coli OC2605) | MIC (S. aureus ATCC29213) | MIC (H. influenzae ATCC49247) | MIC (S. pneumoniae ATCC49619) | Compound
0.12 µg/mL (≈ 0.15 µM) | 16 µg/mL (≈ 20.1 µM) | 1 µg/mL (≈ 1.25 µM) | 4 µg/mL (≈ 5.01 µM) | 0.03 µg/mL (≈ 0.0376 µM) | CC[C@H]1OC(=O)[C@H](C)C(=O)[C@H](C)[C@@H](O[C@@H]2O[C@H](C)C[C@H](N(C)C)[C@H]2O)[C@](C)(OC(=O)NCc2ccc(-n3ccnc3)cc2)C[C@@H](C)C(=O)[C@H](C)[C@H]2NC(=O)O[C@@]21C [Compound 8]
0.25 µg/mL (≈ 0.323 µM) | >16 µg/mL | 1 µg/mL (≈ 1.29 µM) | 16 µg/mL (≈ 20.7 µM) | 0.03 µg/mL (≈ 0.0388 µM) | CC[C@H]1OC(=O)[C@H](C)C(=O)[C@H](C)[C@@H](O[C@@H]2O[C@H](C)C[C@H](N(C)C)[C@H]2O)[C@](C)(OC(=O)NCCCCc2ccccc2)C[C@@H](C)C(=O)[C@H](C)[C@H]2NC(=O)O[C@@]21C [Compound 9]
0.25 µg/mL (≈ 0.313 µM) | 16 µg/mL (≈ 20 µM) | 1 µg/mL (≈ 1.25 µM) | 4 µg/mL (≈ 5.01 µM) | 0.03 µg/mL (≈ 0.0375 µM) | CC[C@H]1OC(=O)[C@H](C)C(=O)[C@H](C)[C@@H](O[C@@H]2O[C@H](C)C[C@H](N(C)C)[C@H]2O)[C@](C)(OC(=O)NCc2ccc(-n3cncn3)cc2)C[C@@H](C)C(=O)[C@H](C)[C@H]2NC(=O)O[C@@]21C [Compound 10]
0.12 µg/mL (≈ 0.158 µM) | 16 µg/mL (≈ 21 µM) | 1 µg/mL (≈ 1.31 µM) | 4 µg/mL (≈ 5.26 µM) | 0.06 µg/mL (≈ 0.0789 µM) | CC[C@H]1OC(=O)[C@H](C)C(=O)[C@H](C)[C@@H](O[C@@H]2O[C@H](C)C[C@H](N(C)C)[C@H]2O)[C@](C)(OC(=O)NCCCc2cccnc2)C[C@@H](C)C(=O)[C@H](C)[C@H]2NC(=O)O[C@@]21C [Compound 12]
0.25 µg/mL (≈ 0.331 µM) | >16 µg/mL | 1 µg/mL (≈ 1.32 µM) | 8 µg/mL (≈ 10.6 µM) | 0.06 µg/mL (≈ 0.0794 µM) | CC[C@H]1OC(=O)[C@H](C)C(=O)[C@H](C)[C@@H](O[C@@H]2O[C@H](C)C[C@H](N(C)C)[C@H]2O)[C@](C)(OC(=O)NCC#Cc2ccccc2)C[C@@H](C)C(=O)[C@H](C)[C@H]2NC(=O)O[C@@]21C [Compound 13]
0.5 µg/mL (≈ 0.623 µM) | >16 µg/mL | 8 µg/mL (≈ 9.96 µM) | >16 µg/mL | 0.12 µg/mL (≈ 0.149 µM) | CC[C@H]1OC(=O)[C@H](C)C(=O)[C@H](C)[C@@H](O[C@@H]2O[C@H](C)C[C@H](N(C)C)[C@H]2O)[C@](C)(OC(=O)NCCCc2ccc(N(C)C)cc2)C[C@@H](C)C(=O)[C@H](C)[C@H]2NC(=O)O[C@@]21C [Compound 14]
0.12 µg/mL (≈ 0.143 µM) | 8 µg/mL (≈ 9.56 µM) | 0.5 µg/mL (≈ 0.598 µM) | 4 µg/mL (≈ 4.78 µM) | 0.03 µg/mL (≈ 0.0359 µM) | CC[C@H]1OC(=O)[C@H](C)C(=O)[C@H](C)[C@@H](O[C@@H]2O[C@H](C)C[C@H](N(C)C)[C@H]2O)[C@](C)(OC(=O)NC/C=C/c2ccc(Br)cc2)C[C@@H](C)C(=O)[C@H](C)[C@H]2NC(=O)O[C@@]21C [Compound 16]
0.25 µg/mL (≈ 0.324 µM) | >16 µg/mL | 0.5 µg/mL (≈ 0.648 µM) | 4 µg/mL (≈ 5.18 µM) | 0.06 µg/mL (≈ 0.0777 µM) | CC[C@H]1OC(=O)[C@H](C)C(=O)[C@H](C)[C@@H](O[C@@H]2O[C@H](C)C[C@H](N(C)C)[C@H]2O)[C@](C)(OC(=O)NC/C(C)=C/c2ccccc2)C[C@@H](C)C(=O)[C@H](C)[C@H]2NC(=O)O[C@@]21C [Compound 21]
0.12 µg/mL (≈ 0.144 µM) | 16 µg/mL (≈ 19.2 µM) | 0.25 µg/mL (≈ 0.299 µM) | 2 µg/mL (≈ 2.4 µM) | 0.06 µg/mL (≈ 0.0719 µM) | CC[C@H]1OC(=O)[C@H](C)C(=O)[C@H](C)[C@@H](O[C@@H]2O[C@H](C)C[C@H](N(C)C)[C@H]2O)[C@](C)(OC(=O)NC/C=C/c2ccc(-c3cccnc3)cc2)C[C@@H](C)C(=O)[C@H](C)[C@H]2NC(=O)O[C@@]21C [Compound 23]

The next lines start with the compound.

Compound | MIC (E. faecalis ATCC29212) | MIC (E. coli OC2605) | MIC (S. aureus ATCC29213) | MIC (H. influenzae ATCC49247) | MIC (S. pneumoniae ATCC49619)
CC[C@H]1OC(=O)[C@H](C)C(=O)[C@H](C)[C@@H](O[C@@H]2O[C@H](C)C[C@H](N(C)C)[C@H]2O)[C@](C)(OC(=O)N(CC#Cc2ccccc2)CC#Cc2ccccc2)C[C@@H](C)C(=O)[C@H](C)[C@H]2NC(=O)O[C@@]21C [Compound 11] | 2 µg/mL (≈ 2.3 µM) | >16 µg/mL | 4 µg/mL (≈ 4.6 µM) | >16 µg/mL | 0.5 µg/mL (≈ 0.575 µM)
CC[C@H]1OC(=O)[C@H](C)C(=O)[C@H](C)[C@@H](O[C@@H]2O[C@H](C)C[C@H](N(C)C)[C@H]2O)[C@](C)(OC(=O)NC/C=C/c2ccc([N+](=O)[O-])cc2)C[C@@H](C)C(=O)[C@H](C)[C@H]2NC(=O)O[C@@]21C [Compound 15] | 0.06 µg/mL (≈ 0.0747 µM) | 4 µg/mL (≈ 4.98 µM) | 0.12 µg/mL (≈ 0.149 µM) | 2 µg/mL (≈ 2.49 µM) | 0.03 µg/mL (≈ 0.0374 µM)
CC[C@H]1OC(=O)[C@H](C)C(=O)[C@H](C)[C@@H](O[C@@H]2O[C@H](C)C[C@H](N(C)C)[C@H]2O)[C@](C)(OC(=O)NC/C=C/c2ccc(-n3cccn3)cc2)C[C@@H](C)C(=O)[C@H](C)[C@H]2NC(=O)O[C@@]21C [Compound 18] | 0.06 µg/mL (≈ 0.0728 µM) | 16 µg/mL (≈ 19.4 µM) | 0.25 µg/mL (≈ 0.303 µM) | 4 µg/mL (≈ 4.85 µM) | 0.03 µg/mL (≈ 0.0364 µM)
CC[C@H]1OC(=O)[C@H](C)C(=O)[C@H](C)[C@@H](O[C@@H]2O[C@H](C)C[C@H](N(C)C)[C@H]2O)[C@](C)(OC(=O)NC/C=C/c2ccc(-c3ccccn3)cc2)C[C@@H](C)C(=O)[C@H](C)[C@H]2NC(=O)O[C@@]21C [Compound 19] | 0.12 µg/mL (≈ 0.144 µM) | 16 µg/mL (≈ 19.2 µM) | 0.12 µg/mL (≈ 0.144 µM) | 4 µg/mL (≈ 4.79 µM) | 0.03 µg/mL (≈ 0.0359 µM)
CC[C@H]1OC(=O)[C@H](C)C(=O)[C@H](C)[C@@H](O[C@@H]2O[C@H](C)C[C@H](N(C)C)[C@H]2O)[C@](C)(OC(=O)NC/C=C/c2ccc(-n3cncn3)cc2)C[C@@H](C)C(=O)[C@H](C)[C@H]2NC(=O)O[C@@]21C [Compound 20] | 0.06 µg/mL (≈ 0.0727 µM) | 16 µg/mL (≈ 19.4 µM) | 0.12 µg/mL (≈ 0.145 µM) | 4 µg/mL (≈ 4.85 µM) | 0.03 µg/mL (≈ 0.0364 µM)
CC[C@H]1OC(=O)[C@H](C)C(=O)[C@H](C)[C@@H](O[C@@H]2O[C@H](C)C[C@H](N(C)C)[C@H]2O)[C@](C)(OC(=O)NC/C=C/c2ccc(-n3ccnc3)cc2)C[C@@H](C)C(=O)[C@H](C)[C@H]2NC(=O)O[C@@]21C [Compound 22] | 0.06 µg/mL (≈ 0.0728 µM) | 8 µg/mL (≈ 9.71 µM) | 0.25 µg/mL (≈ 0.303 µM) | 2 µg/mL (≈ 2.43 µM) | 0.03 µg/mL (≈ 0.0364 µM)
CC[C@H]1OC(=O)[C@H](C)C(=O)[C@H](C)[C@@H](O[C@@H]2O[C@H](C)C[C@H](N(C)C)[C@H]2O)[C@](C)(OC(=O)NCCCc2ccncc2)C[C@@H](C)C(=O)[C@H](C)[C@H]2NC(=O)O[C@@]21C [Compound 24] | 0.12 µg/mL (≈ 0.158 µM) | 16 µg/mL (≈ 21 µM) | 1 µg/mL (≈ 1.31 µM) | 2 µg/mL (≈ 2.63 µM) | 0.06 µg/mL (≈ 0.0789 µM)
CC[C@H]1OC(=O)[C@H](C)C(=O)[C@H](C)[C@@H](O[C@@H]2O[C@H](C)C[C@H](N(C)C)[C@H]2O)[C@](C)(OC(=O)NCCCc2ccnc3ccccc23)C[C@@H](C)C(=O)[C@H](C)[C@H]2NC(=O)O[C@@]21C [Compound 25] | 0.06 µg/mL (≈ 0.074 µM) | 8 µg/mL (≈ 9.86 µM) | 0.25 µg/mL (≈ 0.308 µM) | 4 µg/mL (≈ 4.93 µM) | 0.03 µg/mL (≈ 0.037 µM)
CC[C@H]1OC(=O)[C@H](C)C(=O)[C@H](C)[C@@H](O[C@@H]2O[C@H](C)C[C@H](N(C)C)[C@H]2O)[C@](C)(OC(=O)NC/C=C/c2ccc(-c3ccncc3)cc2)C[C@@H](C)C(=O)[C@H](C)[C@H]2NC(=O)O[C@@]21C [Compound 26] | 0.12 µg/mL (≈ 0.144 µM) | >16 µg/mL | 0.5 µg/mL (≈ 0.599 µM) | 2 µg/mL (≈ 2.4 µM) | 0.03 µg/mL (≈ 0.0359 µM)
CC[C@H]1OC(=O)[C@H](C)C(=O)[C@H](C)[C@@H](O[C@@H]2O[C@H](C)C[C@H](N(C)C)[C@H]2O)[C@](C)(OC(=O)NC/C=C/c2ccc(-c3cncnc3)cc2)C[C@@H](C)C(=O)[C@H](C)[C@H]2NC(=O)O[C@@]21C [Compound 27] | 0.12 µg/mL (≈ 0.144 µM) | 16 µg/mL (≈ 19.1 µM) | 0.25 µg/mL (≈ 0.299 µM) | 4 µg/mL (≈ 4.78 µM) | 0.06 µg/mL (≈ 0.0718 µM)
CC[C@H]1OC(=O)[C@H](C)C(=O)[C@H](C)[C@@H](O[C@@H]2O[C@H](C)C[C@H](N(C)C)[C@H]2O)[C@](C)(OC(=O)NCc2ccc(-c3cncnc3)cc2)C[C@@H](C)C(=O)[C@H](C)[C@H]2NC(=O)O[C@@]21C [Compound 28] | 0.06 µg/mL (≈ 0.0741 µM) | 16 µg/mL (≈ 19.8 µM) | 0.25 µg/mL (≈ 0.309 µM) | 4 µg/mL (≈ 4.94 µM) | 0.03 µg/mL (≈ 0.037 µM)
CC[C@H]1OC(=O)[C@H](C)C(=O)[C@H](C)[C@@H](O[C@@H]2O[C@H](C)C[C@H](N(C)C)[C@H]2O)[C@](C)(OC(=O)NCC#Cc2cnc3ccccc3c2)C[C@@H](C)C(=O)[C@H](C)[C@H]2NC(=O)O[C@@]21C [Compound 29] | 0.06 µg/mL (≈ 0.0744 µM) | 16 µg/mL (≈ 19.8 µM) | 0.5 µg/mL (≈ 0.62 µM) | 2 µg/mL (≈ 2.48 µM) | 0.03 µg/mL (≈ 0.0372 µM)
